From ChEMBL document CHEMBL1201862, “PubChem BioAssay data set” (2004)
Calls of active or inactive are those of the source.

Columns and labels:
[1] = IGROV1 ovarian cancer cell cytotoxicity, dose response, PAX8 inhibitor project, plate reader, dry powder samples (AID 743043); assay type: functional, cell-based; conditions: IGROV-1
Paired box protein Pax-8 = Paired box protein Pax-8 (Homo sapiens, UniProt Q06710); test: inhibitors of PAX8-driven TPO luciferase reporter, dose response, RMG-I cells, cherry-pick (AID 687027); assay type: functional, cell-based;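 further: luciferase reporter driven by Pax8 target thyroperoxidase promoter measured by SteadyGlo luminescence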
Sequence of Paired box protein Pax-8 (Q06710 whole entry): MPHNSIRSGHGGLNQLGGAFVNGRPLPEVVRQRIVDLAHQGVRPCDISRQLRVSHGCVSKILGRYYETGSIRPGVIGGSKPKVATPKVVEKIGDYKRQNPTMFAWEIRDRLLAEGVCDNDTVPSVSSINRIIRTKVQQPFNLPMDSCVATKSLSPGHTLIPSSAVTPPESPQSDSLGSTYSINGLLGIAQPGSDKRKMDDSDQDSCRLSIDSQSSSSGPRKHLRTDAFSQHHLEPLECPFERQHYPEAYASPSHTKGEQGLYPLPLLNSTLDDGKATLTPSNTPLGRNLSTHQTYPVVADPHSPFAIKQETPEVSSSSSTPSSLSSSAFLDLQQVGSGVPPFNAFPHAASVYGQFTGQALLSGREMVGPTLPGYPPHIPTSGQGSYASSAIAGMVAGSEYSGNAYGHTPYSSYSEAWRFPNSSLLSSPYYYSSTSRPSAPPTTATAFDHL

[2] = HEK293 cell viability, dose response, counter-screen for EBV LMP1 inhibitor project, dry powder, set 2 (AID 624374); assay type: functional
[3] = lymphoblastoid cell cytotoxicity, dose response, cytotoxicity control, plate reader, dry powder, set 2 (AID 624367); assay type: functional
[4] = inhibitors of TNFa-stimulated NF-kB luciferase reporter, dose response, selectivity assay for EBV LMP1 NF-kB inhibitor project, HEK293 LMP1 reporter cells, dry powder, set 2 (AID 624369); assay type: functional
[5] = target: Ras and Rab interactor 1/Tyrosine-protein kinase ABL1 (Homo sapiens, UniProt P00519+Q13671); assay type: functional;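 further: biochemical TR-FRET dose-response test measuring inhibition of binding between Rin1 and Abl proteins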
[6] = target: T1, Low molecular weight phosphotyrosine protein phosphatase (Homo sapiens, UniProt P24666); assay type: functional; conditions: read-out: IC50_Mean
T1 sequence (P24666 whole entry): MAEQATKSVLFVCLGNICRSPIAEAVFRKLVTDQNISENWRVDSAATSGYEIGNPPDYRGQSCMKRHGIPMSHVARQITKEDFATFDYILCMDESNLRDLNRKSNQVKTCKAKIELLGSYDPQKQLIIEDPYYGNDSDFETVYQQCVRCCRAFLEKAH

[7] = target: T1, Low molecular weight phosphotyrosine protein phosphatase; assay type: functional; conditions: read-out: IC50_Mean; remark: listed apart in the source
Beta-lactamase [8] = target: T2, Beta-lactamase (Pseudomonas aeruginosa, UniProt Q79MP6); test: IMP-1 metallo-beta-lactamase inhibitors, dose response, selectivity assay for VIM-2 inhibitor project, biochemical, epi-absorbance (AID 1920)
T2 sequence (Q79MP6 whole entry): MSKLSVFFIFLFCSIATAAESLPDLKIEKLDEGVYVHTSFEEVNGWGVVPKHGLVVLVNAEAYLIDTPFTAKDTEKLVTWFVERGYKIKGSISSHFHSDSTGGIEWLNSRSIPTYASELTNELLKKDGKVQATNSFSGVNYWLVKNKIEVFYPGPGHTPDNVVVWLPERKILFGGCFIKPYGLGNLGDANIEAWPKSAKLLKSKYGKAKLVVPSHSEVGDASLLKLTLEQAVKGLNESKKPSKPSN

Beta-lactamase [9] = target: T2, Beta-lactamase; test: […] counterscreen for selective VIM-2 inhibitors: dose response biochemical high throughput screening assay to identify inhibitors of IMP-1 metallo-beta-lactamase.
Beta-lactamase [10] = target: Beta-lactamase (Salmonella choleraesuis (strain SC-B67), UniProt Q5J463); test: Epi-absorbance-based counterscreen for selective VIM-2 inhibitors: dose response biochemical high throughput screening assay to identify inhibitors of TEM-1 serine-beta-lactamase.
Sequence of Beta-lactamase (Salmonella choleraesuis (strain SC-B67), UniProt Q5J463) (Q5J463 whole entry): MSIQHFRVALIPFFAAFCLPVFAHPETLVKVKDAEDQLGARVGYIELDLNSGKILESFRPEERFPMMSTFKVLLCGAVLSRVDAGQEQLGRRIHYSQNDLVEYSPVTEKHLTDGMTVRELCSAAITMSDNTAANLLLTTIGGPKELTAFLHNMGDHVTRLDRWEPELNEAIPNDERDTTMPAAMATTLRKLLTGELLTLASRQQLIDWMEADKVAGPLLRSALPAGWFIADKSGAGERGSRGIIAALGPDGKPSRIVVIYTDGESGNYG

[11] = target: Potassium voltage-gated channel subfamily KQT member 2 (Rattus norvegicus, UniProt O88943); test: KCNQ2 potassium channel inhibitors, dose response, cell-based, automated electrophysiology, set II, rat KCNQ2 (AID 588637); assay type: functional
Sequence of Potassium voltage-gated channel subfamily KQT member 2 (O88943 whole entry): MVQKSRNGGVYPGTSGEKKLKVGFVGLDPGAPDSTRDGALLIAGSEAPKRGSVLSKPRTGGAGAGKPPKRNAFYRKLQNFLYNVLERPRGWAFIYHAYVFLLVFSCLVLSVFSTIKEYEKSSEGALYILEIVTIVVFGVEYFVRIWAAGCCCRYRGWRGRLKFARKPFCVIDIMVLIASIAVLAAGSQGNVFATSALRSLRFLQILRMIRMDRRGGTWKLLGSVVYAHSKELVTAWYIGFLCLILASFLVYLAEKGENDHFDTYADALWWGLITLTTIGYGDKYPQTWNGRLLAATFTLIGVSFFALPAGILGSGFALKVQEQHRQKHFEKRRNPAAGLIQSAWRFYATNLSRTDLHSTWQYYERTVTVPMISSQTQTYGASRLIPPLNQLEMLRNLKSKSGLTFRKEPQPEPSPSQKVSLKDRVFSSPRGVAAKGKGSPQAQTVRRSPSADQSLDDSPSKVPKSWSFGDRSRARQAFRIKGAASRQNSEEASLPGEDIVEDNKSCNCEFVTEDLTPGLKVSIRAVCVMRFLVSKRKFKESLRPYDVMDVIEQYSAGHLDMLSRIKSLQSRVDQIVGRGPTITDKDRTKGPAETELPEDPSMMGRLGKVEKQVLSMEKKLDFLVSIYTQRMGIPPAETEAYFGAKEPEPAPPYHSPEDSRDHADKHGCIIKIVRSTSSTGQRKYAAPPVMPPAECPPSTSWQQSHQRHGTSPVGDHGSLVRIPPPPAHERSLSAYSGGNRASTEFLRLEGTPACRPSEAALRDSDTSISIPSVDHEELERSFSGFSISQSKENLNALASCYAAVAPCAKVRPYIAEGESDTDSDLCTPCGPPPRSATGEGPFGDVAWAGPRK

[12] = target: T3, ATP-dependent translocase ABCB1 (Homo sapiens, UniProt P08183); test: ABCB1 efflux inhibitor potency, dose response, Jurkat-DNR cells, JC-1, flow cytometry, set 2 (AID 504569); assay type: functional; conditions: read-out: EC50_MICROM_;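 further: potency of pump inhibitors that raise cellular JC-1 green fluorescence up to the nicardipine level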
T3 sequence (P08183 whole entry): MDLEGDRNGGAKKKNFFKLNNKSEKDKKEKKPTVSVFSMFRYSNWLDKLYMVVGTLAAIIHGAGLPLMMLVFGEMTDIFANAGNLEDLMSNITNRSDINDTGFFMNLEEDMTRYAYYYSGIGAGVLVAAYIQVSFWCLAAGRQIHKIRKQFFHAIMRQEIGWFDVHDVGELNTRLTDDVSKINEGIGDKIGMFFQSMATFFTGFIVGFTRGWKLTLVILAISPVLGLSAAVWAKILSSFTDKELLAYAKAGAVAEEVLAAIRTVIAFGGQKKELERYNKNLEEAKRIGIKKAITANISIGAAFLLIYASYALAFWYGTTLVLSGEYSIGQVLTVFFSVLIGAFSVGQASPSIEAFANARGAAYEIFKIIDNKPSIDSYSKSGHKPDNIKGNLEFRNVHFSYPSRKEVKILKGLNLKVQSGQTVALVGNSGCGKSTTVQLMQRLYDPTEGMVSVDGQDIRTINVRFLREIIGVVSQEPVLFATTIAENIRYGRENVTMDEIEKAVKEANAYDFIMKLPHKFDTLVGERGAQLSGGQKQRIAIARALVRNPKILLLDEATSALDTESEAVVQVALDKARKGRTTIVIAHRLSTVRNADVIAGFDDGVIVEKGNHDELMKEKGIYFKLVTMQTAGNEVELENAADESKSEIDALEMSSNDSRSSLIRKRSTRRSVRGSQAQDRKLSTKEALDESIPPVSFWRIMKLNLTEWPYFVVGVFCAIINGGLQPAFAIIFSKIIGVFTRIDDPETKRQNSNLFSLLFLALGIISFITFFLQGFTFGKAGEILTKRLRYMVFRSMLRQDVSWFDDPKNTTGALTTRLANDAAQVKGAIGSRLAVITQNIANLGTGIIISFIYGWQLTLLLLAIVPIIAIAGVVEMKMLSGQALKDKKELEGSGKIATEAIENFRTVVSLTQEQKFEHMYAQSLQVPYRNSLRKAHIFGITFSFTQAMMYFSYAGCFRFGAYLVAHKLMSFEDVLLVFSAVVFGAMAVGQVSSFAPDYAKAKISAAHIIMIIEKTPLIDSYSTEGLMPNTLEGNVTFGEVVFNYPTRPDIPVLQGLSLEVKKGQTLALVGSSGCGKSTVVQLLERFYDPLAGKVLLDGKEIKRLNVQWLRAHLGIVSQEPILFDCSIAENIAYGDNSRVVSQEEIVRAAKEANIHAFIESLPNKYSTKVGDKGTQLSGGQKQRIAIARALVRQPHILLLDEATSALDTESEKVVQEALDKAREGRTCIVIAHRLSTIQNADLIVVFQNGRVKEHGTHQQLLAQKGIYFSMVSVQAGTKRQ

[13] = target: T3, ATP-dependent translocase ABCB1; test: ABCG2 efflux pump inhibitor potency, dose response, Ig-MXP3 cells, JC-1, flow cytometry, set 2 (AID 504566); assay type: functional; conditions: read-out: EC50_MICROM_;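 further: flow cytometry median green fluorescence of retained JC-1 dye; potency of efflux pump inhibition measured as rising substrate retention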
[14] = target: Aryl hydrocarbon receptor (Homo sapiens, UniProt P35869); conditions: Potency;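 further: confirmatory quantitative high-throughput screen measuring activation of the AhR signaling pathway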
Sequence of Aryl hydrocarbon receptor (P35869 whole entry): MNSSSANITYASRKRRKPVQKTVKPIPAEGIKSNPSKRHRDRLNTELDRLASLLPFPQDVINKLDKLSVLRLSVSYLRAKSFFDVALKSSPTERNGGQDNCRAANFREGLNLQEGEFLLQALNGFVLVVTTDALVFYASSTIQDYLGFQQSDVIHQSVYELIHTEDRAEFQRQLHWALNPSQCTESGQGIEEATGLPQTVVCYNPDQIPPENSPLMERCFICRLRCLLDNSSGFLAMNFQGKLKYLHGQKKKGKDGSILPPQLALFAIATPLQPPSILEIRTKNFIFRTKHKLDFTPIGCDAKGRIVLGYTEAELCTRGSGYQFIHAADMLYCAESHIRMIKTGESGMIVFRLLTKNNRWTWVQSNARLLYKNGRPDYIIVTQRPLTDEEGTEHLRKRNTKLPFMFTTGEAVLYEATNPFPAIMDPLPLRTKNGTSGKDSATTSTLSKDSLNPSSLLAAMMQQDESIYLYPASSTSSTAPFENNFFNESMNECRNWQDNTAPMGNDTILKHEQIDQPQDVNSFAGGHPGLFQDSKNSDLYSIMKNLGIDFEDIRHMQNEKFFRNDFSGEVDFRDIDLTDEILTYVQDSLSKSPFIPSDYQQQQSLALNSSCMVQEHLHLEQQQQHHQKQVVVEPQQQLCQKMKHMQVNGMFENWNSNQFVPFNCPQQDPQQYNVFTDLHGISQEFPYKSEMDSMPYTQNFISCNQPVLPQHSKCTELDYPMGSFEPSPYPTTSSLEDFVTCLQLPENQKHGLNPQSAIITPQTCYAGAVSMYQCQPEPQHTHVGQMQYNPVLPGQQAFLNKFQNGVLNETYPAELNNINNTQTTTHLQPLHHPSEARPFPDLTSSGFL

For `O=C(C[C@H]1CC[C@H]2[C@@H](COC[C@@H](O)CN2Cc2ccc3c(c2)OCO3)O1)Nc1ccc(-c2ccccc2)cc1`, the AC50 [1] was 63.5 µM (active), the AC50 (Paired box protein Pax-8) was 5.67 µM (active) and the AbsAC35 [2] was 148.97 µM. The AbsAC35 [3] was 77.89 µM and the AbsAC35 [4] was 57.32 µM.
In the case of `CCN(CC(=O)Nc1ccc(NC(C)=O)cc1)C(=O)c1ccccc1SCc1c(C)noc1C`, the IC50 [5] is reported as 2.22 µM (active).
For `Cc1nc(N)nc(N)c1-c1ccc([N+](=O)[O-])cc1`, the IC50 [6] was 11.7 µM (active) and the IC50 [7] was 12.3 µM (active).
In the case of `Cc1c(C)c2c(OCC(=O)N3CCC[C@H]3C(=O)O)cc3c(c2oc1=O)CCC(C)(C)O3`, the IC50 (Beta-lactamase [8]) is reported as > 59.6 µM (inactive), the IC50 (Beta-lactamase [9]) is reported as > 59.6 µM (inactive) and the IC50 (Beta-lactamase [10]) is reported as > 59.6 µM (inactive).
For `COc1ccc(CCN(C)C(=O)c2cc(-c3ccccc3)nc3ccc(C)cc23)cc1OC`, the IC50 [11] was 0.478 µM (active).
With `O=C(c1ccoc1)N1CCN(c2cc(-c3ccccc3)nc3cc(-c4ccccc4)nn23)CC1` the EC50 [12] was 1.79 µM (active) and the EC50 [13] was 2.02 µM (active).
With `O=C(O)C1(C(=O)Nc2ccc(Cl)cc2Cl)CC1` the AC50 [14] was 50.1 µM (inconclusive).
